What was measured:
[1] = test system: activated RAW 264.7 cells; assay: Measurement of NO production via nitrite detection (Griess) in IFN-γ and LPS activated RAW 264.7 cells; assay type: cell-based, mouse; conditions: for Nitrite Production / Nitrite Production as Percentage of Control: IFN-γ + LPS; for Effect on NO production, in words (Table 2): conditions of Table 2 (2 and 10 μg/ml)
Method: (§1) NIH/3T3 (mouse embryo fibroblast, CCRC 60008) and RAW 264.7 (mouse monocyte/macrophage, CCRC 60001) cell lines were obtained from Culture Collection and Research Center (CCRC), Taiwan. Both cell lines were cultured in Dulbecco's modified essential medium (DMEM, GIBCO BRL, Rockville, Md.) containing 1.5 g/L NaHCO3 supplemented with 10% fetal bovine serum (Hyclone, Logan, Utah) and incubated in 5% CO2 at 37° C. Cell cultures were examined for mycoplasma contamination with the fluorescent stain Hoechst 33258 (Hay et al., ATCC Quality Control Methods for Cell Lines, American Type Culture Collection, Manassas, Va., 1992, pp 23-33). All cultures described in the present example were mycoplasma-free.
Two mixtures were prepared. A mixture of collagen type I (rat tail, Sigma, St. Louis, Mo.) was dissolved in 0.1 N acetic acid to produce a 1 mg/ml collagen solution. Chitin was added to 0.1 N acetic acid until a 1 mg/ml mixture was achieved, and the mixture was sonicated for 3 minutes using a Labsonic U sonicator, (Braun Biotech International, Germany). After being autoclaved at 121° C. for 15 minutes, the chitin mixture became a slurry of fine wires. Microtiter tissue culture plates (96-well) were rinsed with Dulbecco's phosphate-buffer saline without Ca^+2 and Mg^+2 (D-PBS, GIBCO BRL). Five microliters of collagen solution or different amounts of the chitin mixture were then added to each well. The plates were then air-dried in a laminar flow hood and stored at 4° C. for up to a week.
Nitric oxide (NO) production was indirectly quantified by measuring the accumulation of nitrite (NO2^−) in the culture media using Griess reagents and sodium nitrite as a standard (Green et al., Anal. Biochem. 126:131-138, 1982; and Ignarro et al., Proc. Natl. Acad. Sci. USA 90:8103-8107, 1993). For nitrite assays, RAW 264.7 cells were subcultured in coated 96-well tissue culture plates at 1×10^5 cells/well and incubated for 24 hours. The culture media were changed to phenol red-free, serum-free DMEM containing 100 U/ml interferon-γ(IFN-γ, recombinant murine; GIBCO BRL) and 100 ng/ml lipopolysaccharide (LPS, Escherichia coli serotype 0128:B12; Sigma). The samples were then tested as described in Rollo et al., J. Leukoc. Biol. 60:397-404, 1996.
To measure the effect of chitin on NO production, cells were subcultured directly in the chitin-coated 96-well tissue culture plates. After overnight incubation, cells became adhered to the bottom of chitin-coated wells. The culture media were removed and replaced with media supplemented with IFN-γ and LPS as described above. After 48 hours incubation, […] of culture supernatants were mixed sequentially with equal volumes of 60 mM sulfanilamide (Sigma) in 3 N HCl and 4 mM N-1-naphthylethylenediamine (Sigma) and then shaken for 5 minutes at room temperature as described in Rollo et al., supra. Nitrite concentration was measured by reading the sample's absorbance at 540 nm using a microplate reader (MRX, Dynex Technologies, Inc., VA).

RAW 264.7 cells = assay: Cytotoxicity test (MTT cell growth), RAW 264.7; assay type: cell-based, mouse
Method: as §1
Two mixtures were prepared. […]
For chitin cytotoxicity experiment, cells were subcultured in 96-well tissue culture plates precoated with different amount of chitin or with collagen at a density of 2000 cells/well and incubated for 48 hours. […] Cytotoxicity was measured using the dye 3-(4,5-dimethylthiazol-2-yl)-2,5-diphenyl tetrazolium bromide (MTT; Merck Co., Germany) and following the methods described in Mosmann, J. Immunol. […]
The cytotoxicity associated with chitin and chitosan was evaluated for both mouse embryonic fibroblast NIH/3T3 cells and mouse monocyte-macrophage RAW 264.7 cells. […]

[2] = 5 μl per well (1 mg/ml) coated, 48 hours

Compound | Nitrite Production ([1]; 2 μg/ml in culture medium) [µM] | Nitrite Production as Percentage of Control ([1]; 2 μg/ml in culture medium) [%] | Nitrite Production ([1]; 10 μg/ml in culture medium) [µM] | Nitrite Production as Percentage of Control ([1]; 10 μg/ml in culture medium) [%] | Effect on NO production, in words (Table 2) [1] | Cytotoxicity (MTT) (RAW 264.7 cells) | Nitrite Production [1, 2] [µM] | Nitrite Production as Percentage of Control [1, 2] [%] | Effect on NO production, in words (Table 1) ([1]; conditions of Table 1)
CC(=O)N[C@H]1[C@H](O[C@H]2[C@H](O)[C@@H](NC(C)=O)[C@H](O[C@H]3[C@H](O)[C@@H](NC(C)=O)C(O)O[C@@H]3CO)O[C@@H]2CO)O[C@H](CO)[C@@H](O[C@@H]2O[C@H](CO)[C@@H](O[C@@H]3O[C@H](CO)[C@@H](O[C@@H]4O[C@H](CO)[C@@H](O)[C@H](O)[C@H]4NC(C)=O)[C@H](O)[C@H]3NC(C)=O)[C@H](O)[C@H]2NC(C)=O)[C@@H]1O (stereo partly shown) [chitohexose] | 41.3 ± 0.8 | 63 | 35.8 ± 2.9 | 54.5 | did substantially decrease NO production |  |  |  | 
CC(=O)N[C@H]1[C@H](O[C@H]2[C@H](O)[C@@H](NC(C)=O)C(O)O[C@@H]2CO)O[C@H](CO)[C@@H](O[C@@H]2O[C@H](CO)[C@@H](O)[C@H](O)[C@H]2NC(C)=O)[C@@H]1O (stereo partly shown) [chitotriose] | 61.5 ± 0.9 | 93.8 | 61.1 ± 0.2 | 93.1 |  |  |  |  | 
CC(=O)N[C@H]1[C@H](O[C@H]2[C@H](O)[C@@H](NC(C)=O)C(O)O[C@@H]2CO)O[C@H](CO)[C@@H](O)[C@@H]1O (stereo partly drawn) [chitobiose, 2-acetamido-2-deoxy-4-O-(2-acetamido-2-deoxy-b-D-glucopyranosyl)-D-glucopyranose] | 64.9 ± 0.8 | 98.9 | 64.1 ± 0.9 | 97.7 |  |  |  |  | 
N[C@H]1C(O)O[C@H](CO)[C@@H](O)[C@@H]1O (stereo partly shown) [glucosamine, reference compound] |  |  | 64.3 ± 0.8 | 98.0 |  | not cytotoxic |  |  | 
CC(=O)N[C@H]1C(O)O[C@H](CO)[C@@H](O)[C@@H]1O (stereo partly shown) [NAGA, N-acetylglucosamine, reference compound] |  |  | 66.7 ± 0.9 | 102 |  | not cytotoxic |  |  | 
CC(=O)N[C@@H]1[C@@H](O)[C@H](O[C@@H]2O[C@H](CO)[C@@H](O[C@@H]3O[C@H](CO)[C@@H](O[C@@H]4O[C@H](CO)[C@@H](O[C@@H]5O[C@H](CO)[C@@H](O)[C@H](O)[C@H]5NC(C)=O)[C@H](O)[C@H]4NC(C)=O)[C@H](O)[C@H]3NC(C)=O)[C@H](O)[C@H]2NC(C)=O)[C@@H](CO)O[C@H]1O [chitopentose] | 47.0 ± 0.5 | 70.6 | 42.7 ± 1.2 | 65.1 | did substantially decrease NO production |  |  |  | 
chitotetraose | 63.4 ± 0.5 | 96.6 | 61.3 ± 0.6 | 93.4 |  |  |  |  | 
Collagen: collagen type I (rat tail, Sigma), coating comparison [reference compound] |  |  |  |  |  |  | 73.4 ± 0.9 | 99 | did not significantly affect NO production
